Measured values from patent publication US20260015350A1, “AZAQUINAZOLINE PAN-KRAS INHIBITORS” (Mirati Therapeutics, Inc., priority 2022, published 2026).

Columns and labels:
[1] = target: T1, KRas^Q61H (Homo sapiens, UniProt P01116, Q61H); assay: KRas binding assay (TR-FRET tracer displacement), KRas Q61H; conditions: TR-FRET tracer displacement, KRas Q61H
T1 construct: Biotinylated KRas (corresponding to amino acids 1-169, produced at Accelegan Inc.); biotin (biotinylated); purchased Accelegan Inc
T1 sequence (P01116 1-169 isoform P01116-2 Q61H): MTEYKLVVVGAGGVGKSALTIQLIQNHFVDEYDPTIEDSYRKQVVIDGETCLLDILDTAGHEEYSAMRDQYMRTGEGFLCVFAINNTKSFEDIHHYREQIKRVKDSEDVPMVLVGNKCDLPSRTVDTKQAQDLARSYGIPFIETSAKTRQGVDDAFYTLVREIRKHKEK

[2] = target: T2, KRas^G12V (Homo sapiens, UniProt P01116, G12V); assay: KRas binding assay (TR-FRET tracer displacement), KRas G12V
T2 construct: Biotinylated KRas (corresponding to amino acids 1-169, produced at Accelegan Inc.); biotin (biotinylated); purchased Accelegan Inc
T2 sequence (P01116 1-169 isoform P01116-2 G12V): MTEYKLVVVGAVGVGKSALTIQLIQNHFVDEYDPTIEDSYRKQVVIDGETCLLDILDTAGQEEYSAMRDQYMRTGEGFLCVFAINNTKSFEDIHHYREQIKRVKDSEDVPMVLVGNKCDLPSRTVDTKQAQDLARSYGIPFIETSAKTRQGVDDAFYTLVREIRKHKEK

[3] = system: KRas-mediated phosphorylation of ERK in AsPC-1 cells; assay: Inhibition of KRas-mediated phosphorylation of ERK (Cisbio HTRF pERK), AsPC-1 cells; assay type: cell-based; conditions: Homo sapiens, ASPC1, AsPC-1 cells; HTRF pERK
Summary of the method: (§1)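 Signal read by HTRF (d2/Cryptate antibody pair, 2 hr room-temperature incubation on lysate). Cells: 6,000 per well, 3 hr compound exposure. Titration: 10 uM highest, 3-fold, 10 points.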

[4] = target: T3, KRas^G12R (Homo sapiens, UniProt P01116, G12R); assay: KRas binding assay (TR-FRET tracer displacement), KRas G12R
T3 construct: Biotinylated KRas (corresponding to amino acids 1-169, produced at Accelegan Inc.); biotin (biotinylated); purchased Accelegan Inc
T3 sequence (P01116 1-169 isoform P01116-2 G12R): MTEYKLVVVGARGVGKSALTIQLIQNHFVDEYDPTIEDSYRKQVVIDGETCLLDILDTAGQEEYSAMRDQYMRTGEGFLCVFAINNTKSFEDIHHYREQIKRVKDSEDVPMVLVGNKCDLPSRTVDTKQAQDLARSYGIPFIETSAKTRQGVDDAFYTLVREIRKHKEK

[5] = target: T4, KRas^G12S (Homo sapiens, UniProt P01116, G12S); assay: KRas binding assay (TR-FRET tracer displacement), KRas G12S; conditions: TR-FRET tracer displacement, KRas G12S
T4 construct: Biotinylated KRas (corresponding to amino acids 1-169, produced at Accelegan Inc.); biotin (biotinylated); purchased Accelegan Inc
T4 sequence (P01116 1-169 isoform P01116-2 G12S): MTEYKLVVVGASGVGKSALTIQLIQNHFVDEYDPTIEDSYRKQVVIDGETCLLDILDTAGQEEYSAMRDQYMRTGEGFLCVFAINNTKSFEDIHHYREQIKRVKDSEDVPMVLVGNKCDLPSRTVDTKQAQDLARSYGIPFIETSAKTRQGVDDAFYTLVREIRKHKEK

[6] = target: T5, KRas^G12C (Homo sapiens, UniProt P01116, G12C); assay: KRas binding assay (TR-FRET tracer displacement), KRas G12C; conditions: TR-FRET tracer displacement, KRas G12C
T5 construct: Biotinylated KRas (corresponding to amino acids 1-169, produced at Accelegan Inc.); biotin (biotinylated); purchased Accelegan Inc
T5 sequence (P01116 1-169 isoform P01116-2 G12C): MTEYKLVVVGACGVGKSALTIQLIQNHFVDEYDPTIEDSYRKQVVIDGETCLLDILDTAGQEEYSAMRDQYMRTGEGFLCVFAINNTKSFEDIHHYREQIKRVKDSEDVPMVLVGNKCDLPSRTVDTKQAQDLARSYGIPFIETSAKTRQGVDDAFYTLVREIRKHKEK

[7] = target: T6, KRas^G12D (Homo sapiens, UniProt P01116, G12D); assay: KRas binding assay (TR-FRET tracer displacement), KRas G12D
T6 construct: Biotinylated KRas (corresponding to amino acids 1-169, produced at Accelegan Inc.); biotin (biotinylated); purchased Accelegan Inc
T6 sequence (P01116 1-169 isoform P01116-2 G12D): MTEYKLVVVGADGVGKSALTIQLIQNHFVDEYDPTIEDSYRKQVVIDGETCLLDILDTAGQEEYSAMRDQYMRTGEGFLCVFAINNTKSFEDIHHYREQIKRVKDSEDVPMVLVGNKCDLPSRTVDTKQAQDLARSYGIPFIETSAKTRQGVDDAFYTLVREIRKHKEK

[8] = target: T7, KRas^G12A (Homo sapiens, UniProt P01116, G12A); assay: KRas binding assay (TR-FRET tracer displacement), KRas G12A; conditions: TR-FRET tracer displacement, KRas G12A
T7 construct: Biotinylated KRas (corresponding to amino acids 1-169, produced at Accelegan Inc.); biotin (biotinylated); purchased Accelegan Inc
T7 sequence (P01116 1-169 isoform P01116-2 G12A): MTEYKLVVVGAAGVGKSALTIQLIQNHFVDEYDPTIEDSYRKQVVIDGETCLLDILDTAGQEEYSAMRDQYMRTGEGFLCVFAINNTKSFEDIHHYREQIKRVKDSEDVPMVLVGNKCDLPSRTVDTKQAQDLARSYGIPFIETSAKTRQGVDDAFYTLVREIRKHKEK

[9] = target: T8, KRas^WT (Homo sapiens, UniProt P01116); assay: KRas binding assay (TR-FRET tracer displacement), KRas WT; conditions: TR-FRET tracer displacement, KRas WT
T8 construct: Biotinylated KRas (corresponding to amino acids 1-169, produced at Accelegan Inc.); biotin (biotinylated); purchased Accelegan Inc
T8 sequence (P01116 1-169 isoform P01116-2): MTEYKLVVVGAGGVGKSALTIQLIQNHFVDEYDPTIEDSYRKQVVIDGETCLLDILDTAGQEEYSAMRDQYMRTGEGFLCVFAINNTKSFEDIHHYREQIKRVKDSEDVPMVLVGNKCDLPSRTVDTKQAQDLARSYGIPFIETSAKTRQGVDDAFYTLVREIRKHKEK

[10] = target: T9, KRas^G13D (Homo sapiens, UniProt P01116, G13D); assay: KRas binding assay (TR-FRET tracer displacement), KRas G13D; conditions: TR-FRET tracer displacement, KRas G13D
T9 construct: Biotinylated KRas (corresponding to amino acids 1-169, produced at Accelegan Inc.); biotin (biotinylated); purchased Accelegan Inc
T9 sequence (P01116 1-169 isoform P01116-2 G13D): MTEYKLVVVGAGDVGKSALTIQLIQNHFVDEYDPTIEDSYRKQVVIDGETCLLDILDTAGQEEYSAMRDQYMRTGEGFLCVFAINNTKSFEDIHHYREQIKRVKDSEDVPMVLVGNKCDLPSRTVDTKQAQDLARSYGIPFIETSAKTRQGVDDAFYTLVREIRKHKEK

[11] = system: KRas-mediated phosphorylation of ERK in H727 cells; assay: Inhibition of KRas-mediated phosphorylation of ERK (Cisbio HTRF pERK), H727 cells; assay type: cell-based; conditions: Homo sapiens, NCI-H727, H727 cells; HTRF pERK
Summary of the method: as §1

IC50 [1] [nM] | IC50 [2] [nM] | IC50 [3] [nM] | IC50 [4] [nM] | IC50 [5] [nM] | IC50 [6] [nM] | IC50 [7] [nM] | IC50 [8] [nM] | IC50 [9] [nM] | IC50 [10] [nM] | IC50 [11] [nM] | SMILES
1210 | 410 | > 10000 | 441 | 494 | 812 | 1610 | 763 | 965 | 1120 | > 10000 | Cc1cc2[nH]ncc2c(-c2ncc3c(N4CC5CC(O)C(C5)C4)nc(OCC45CCCN4CCC5)nc3c2F)c1C (centres unmarked) [Example 725, 3-(7-(5,6-dimethyl-1H-indazol-4-yl)-8-fluoro-2-((tetrahydro-1H-pyrrolizin-7a(5H)-yl)methoxy)pyrido[4,3-d]pyrimidin-4-yl)-3-azabicyclo[3.2.1]octan-6-ol]
177 | 131 | > 10000 | 344 | 68 | 208 | 58 | 242 | 145 | 138 | > 10000 | Cc1cc2[nH]ncc2c(-c2ncc3c(N4CC5C(=O)NC(=O)C5C4)nc(OCC45CCCN4CCC5)nc3c2F)c1C (centres unmarked) [Example 726, 5-(7-(5,6-dimethyl-1H-indazol-4-yl)-8-fluoro-2-((hexahydro-1H-pyrrolizin-7a-yl)methoxy)pyrido[4,3-d]pyrimidin-4-yl)tetrahydropyrrolo[3,4-c]pyrrole-1,3(2H,3aH)-dione]
947 | 333 | > 10000 | 520 | 540 | 421 | 634 | 516 | 657 | 888 | > 10000 | Cc1cc2[nH]ncc2c(-c2ncc3c(N4CCCC5(CC(O)C5)C4)nc(OCC45CCCN4CCC5)nc3c2F)c1C (centres unmarked) [Example 727, 6-(7-(5,6-dimethyl-1H-indazol-4-yl)-8-fluoro-2-((hexahydro-1H-pyrrolizin-7a-yl)methoxy)pyrido[4,3-d]pyrimidin-4-yl)-6-azaspiro[3.5]nonan-2-ol]
53 | 36 | > 10000 | 61 | 40 | 40 | 26 | 48 | 45 | 46 | > 10000 | Cc1cc2[nH]ncc2c(-c2ncc3c(N4CCCC5(CNC(=O)N5)C4)nc(OCC45CCCN4CCC5)nc3c2F)c1C (centres unmarked) [Example 729, 7-(7-(5,6-dimethyl-1H-indazol-4-yl)-8-fluoro-2-((hexahydro-1H-pyrrolizin-7a-yl)methoxy)pyrido[4,3-d]pyrimidin-4-yl)-1,3,7-triazaspiro[4.5]decan-2-one]
444 | 75 | > 10000 | 203 | 113 | 131 | 35 | 251 | 343 | 513 | > 10000 | Cc1cc2[nH]ncc2c(-c2ncc3c(N4CCCn5nc(C(=O)N(C)C)cc5C4)nc(OCC45CCCN4CCC5)nc3c2F)c1C [Example 730, 5-(7-(5,6-dimethyl-1H-indazol-4-yl)-8-fluoro-2-((hexahydro-1H-pyrrolizin-7a-yl)methoxy)pyrido[4,3-d]pyrimidin-4-yl)-N,N-dimethyl-5,6,7,8-tetrahydro-4H-pyrazolo[1,5-a][1,4]diazepine-2-carboxamide]
13 | 8 | > 10000 | 10 | 12 | 11 | 15 | 13 | 12 | 13 | > 10000 | Cc1cc2[nH]ncc2c(-c2ncc3c(N4CCC[C@]5(C4)NC(=O)NC5=O)nc(OC[C@@]45CCCN4C[C@H](F)C5)nc3c2F)c1C [Example 731, (5R)-7-(7-(5,6-dimethyl-1H-indazol-4-yl)-8-fluoro-2-(((2R,7aS)-2-fluorohexahydro-1H-pyrrolizin-7a-yl)methoxy)pyrido[4,3-d]pyrimidin-4-yl)-1,3,7-triazaspiro[4.5]decane-2,4-dione]
79 | 31 | > 10000 | 47 | 63 | 43 | 113 | 61 | 50 | 60 | > 10000 | Cc1cc2[nH]ncc2c(-c2ncc3c(N4CCC[C@]5(C4)NC(=O)NC5=O)nc(OCC4(CN(C)C)CC4)nc3c2F)c1C [Example 732, (5R)-7-(7-(5,6-dimethyl-1H-indazol-4-yl)-2-((1-((dimethylamino)methyl)cyclopropyl)methoxy)-8-fluoropyrido[4,3-d]pyrimidin-4-yl)-1,3,7-triazaspiro[4.5]decane-2,4-dione]
9 | 3 | 5960 | 2 | 9 | 9 | 17 | 11 | 11 | 10 | 1510 | Oc1cc(Cl)c(C2CC2)c(-c2ncc3c(N4C[C@H]5C[C@@H](C4)[C@H](O)C5)nc(OCC45CCCN4CCC5)nc3c2F)c1 [Example 738, (1S,5S,6R)-3-(7-(3-chloro-2-cyclopropyl-5-hydroxyphenyl)-8-fluoro-2-((tetrahydro-1H-pyrrolizin-7a(5H)-yl)methoxy)pyrido[4,3-d]pyrimidin-4-yl)-3-azabicyclo[3.2.1]octan-6-ol]
< 2 | < 2 | > 10000 | < 2 | < 2 | < 2 | 3 | 2 | < 2 | < 2 | > 10000 | O=C1NC(=O)C2(CCCN(c3nc(OCC45CCCN4CCC5)nc4c(F)c(-c5cc(O)cc(Cl)c5C5CC5)ncc34)C2)N1 (centres unmarked) [Example 739, 7-(7-(3-chloro-2-cyclopropyl-5-hydroxyphenyl)-8-fluoro-2-((hexahydro-1H-pyrrolizin-7a-yl)methoxy)pyrido[4,3-d]pyrimidin-4-yl)-1,3,7-triazaspiro[4.5]decane-2,4-dione]
< 2 | < 2 | > 10000 | < 2 | < 2 | < 2 | < 2 | 2 | < 2 | 3 | > 10000 | O=C1NCC2(CCCN(c3nc(OCC45CCCN4CCC5)nc4c(F)c(-c5cc(O)cc(Cl)c5C5CC5)ncc34)C2)N1 (centres unmarked) [Example 741, 7-(7-(3-chloro-2-cyclopropyl-5-hydroxyphenyl)-8-fluoro-2-((hexahydro-1H-pyrrolizin-7a-yl)methoxy)pyrido[4,3-d]pyrimidin-4-yl)-1,3,7-triazaspiro[4.5]decan-2-one]
7 | 3 | 3690 | 20 | 8 | 6 | 8 | 8 | 9 | 9 | 1100 | Oc1cc(Cl)c(C2CC2)c(-c2ncc3c(N4CCC[C@]5(C4)C[C@@H](O)C5)nc(OCC45CCCN4CCC5)nc3c2F)c1 [Example 743, (2r,4s)-6-(7-(3-chloro-2-cyclopropyl-5-hydroxyphenyl)-8-fluoro-2-((tetrahydro-1H-pyrrolizin-7a(5H)-yl)methoxy)pyrido[4,3-d]pyrimidin-4-yl)-6-azaspiro[3.5]nonan-2-ol]
9 | 11 | > 10000 | 9 | 11 | 11 | 16 | 14 | 13 | 11 | > 10000 | O=C1NC(=O)C2(CCCN(c3nc(OCC45CCCN4CCC5)nc4c(F)c(-c5c6ccccc6cc6[nH]ncc56)ncc34)C2)N1 (centres unmarked) [Example 755, 7-(7-(1H-benzo[f]indazol-4-yl)-8-fluoro-2-((hexahydro-1H-pyrrolizin-7a-yl)methoxy)pyrido[4,3-d]pyrimidin-4-yl)-1,3,7-triazaspiro[4.5]decane-2,4-dione]
13 | 10 | > 10000 | 17 | 13 | 12 | 11 | 14 | 13 | 13 | > 10000 | O=C1NCC2(CCCN(c3nc(OCC45CCCN4CCC5)nc4c(F)c(-c5c6ccccc6cc6[nH]ncc56)ncc34)C2)N1 (centres unmarked) [Example 756, 7-(7-(1H-benzo[f]indazol-4-yl)-8-fluoro-2-((hexahydro-1H-pyrrolizin-7a-yl)methoxy)pyrido[4,3-d]pyrimidin-4-yl)-1,3,7-triazaspiro[4.5]decan-2-one]
